The test has as its target T1, cloned human CRF-R1 receptors (Homo sapiens, UniProt P34998).
T1 construct: the coding region was amplifies by PCR from start to stop codons; expressed in transfected cells; membranes
T1 sequence (P34998 24-415): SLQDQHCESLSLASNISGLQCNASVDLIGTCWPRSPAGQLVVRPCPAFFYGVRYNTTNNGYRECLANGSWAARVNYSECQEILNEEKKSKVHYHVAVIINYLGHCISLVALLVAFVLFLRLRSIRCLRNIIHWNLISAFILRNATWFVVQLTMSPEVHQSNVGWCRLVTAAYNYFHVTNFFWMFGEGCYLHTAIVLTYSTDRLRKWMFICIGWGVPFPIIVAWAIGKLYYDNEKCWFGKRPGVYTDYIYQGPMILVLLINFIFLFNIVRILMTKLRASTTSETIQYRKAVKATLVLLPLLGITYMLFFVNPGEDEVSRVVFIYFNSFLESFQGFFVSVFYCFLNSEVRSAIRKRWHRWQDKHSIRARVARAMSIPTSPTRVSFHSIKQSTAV
Description: CRF-R1 receptor binding assay (inhibition of 125I-ovine-CRF binding to cell membranes). The conditions noted are these: membranes of 293EBNA cells transfected with hCRFR1, class d = reported as percent inhibition at 10 μM, figures not given, read-out: activity (Ki class in the CRF assays). The source says: The following is a description of the isolation of cell membranes containing cloned human CRF-R1 receptors for use in a standard binding assay as well as a description of the assay itself.
Messenger RNA was isolated from human hippocampus. […]. The mRNA was reverse transcribed using oligo (dt) 12–18 and the coding region was amplifies by PCR from start to stop codons. The resulting PCR fragment was cloned into the EcoRV site of pGEMV, from whence the insert was reclaimed using XhoI+XbaI and cloned into the XhoI+XbaI sites of vector pm3 as (which contains a CMV promoter, the SV′t′ splice and early poly A signals, an Eptein-Barr viral origin of replication, and a hygromycin selectable marker). The resulting expression vector, called phchCRFR was transfected in 293EBNA cells and cells retaining the episome were selected in the presence of […] hygromycin. Cells surviving 4 weeks of selection in hygromycin were pooled, adapted to growth in suspension and used to generate membranes for the binding assay described below. Individual aliquots containing approximately 1×10^8 of the suspended cells were then centrifuged to form a pellet and frozen. For the binding assay a frozen pellet described above containing 293EBNA cells transfected with hCRFR1 receptors is homogenized in 10 mL of ice cold tissue buffer (50 mM HEPES buffer pH 7.0, containing 10 MM MgCl2, 2 mM EGTA, 1 μg/mL apotinin, 1 μg/mL leupeptin and 1 μg/mL pepstatin). The homoginate is centrifuged at 40,000×g for 12 min and the resulting pellet rehomogenized in 10 mL of tissue buffer. After another centrifugation at 40,000×g for 12 min, the pellet is resuspended to a protein concentration of 360 μg/mL to be used in the assay.
Binding assays are performed in 96 well plates; each well having a 300 μL capacity. To each well is added 50 μL of test drug dilutions (final concentration of drugs range from 10^−10–10^−5 M), 100 μL of ^125I-ovine-CRF (^125I-o-CRF) (final concentration 150 pM) and 150 μL of the cell homoginate described above. Plates are then allowed to incubate at room temperature for 2 hours before filtering the incubate over GF/F filters (presoaked with 0.3% polyethyleneimine) using an appropriate cell harvester. Filters are rinsed 2 times with ice cold assay buffer before removing individual filters and assessing them for radioactivity on a gamma counter.
Curves of the inhibition of ^125I-o-CRF binding to cell membranes at various dilutions of test drug are analyzed by the iterative curve fitting program LIGAND [P. J. Munson and D. Rodbard, Anal. Biochem., 107:220 (1980), which provides Ki values for inhibition which are then used to assess biological activity. […]
Messenger RNA was isolated from human hippocampus. The mRNA was isolated from human hippocampus. The mRNA was reverse transcribed using oligo (dt) 12–18 and the coding region was amplifies by PCR from start to stop codons. The resulting PCR fragment was cloned into the EcoRV site of pGEMV, from whence the insert was reclaimed using XhoI+XbaI and cloned into the XhoI+XbaI sites of vector pm3 as (which contains a CMV promoter, the SV′t′ splice and early poly A signals, an Eptein-Barr viral origin of replication, and a hygromycin selectable marker). The resulting expression vector, called phchCRFR was transfected in 293EBNA cells and cells retaining the episome were selected in the presence of […] hygromycin. Cells surviving 4 weeks of selection in hygromycin were pooled, adapted to growth in suspension and used to generate membranes for the binding assay described below. […]
A frozen pellet described above containing 293EBNA cells transfected with hCRFR1 receptors or the rat frontal cortex tissue dissected from frozen rat brains was prepared as the source of membranes expressing CRF1 receptors used in binding assays. […]

Each structure is given as a SMILES string.

Take `C=CCOc1ccc(S(=O)(=O)c2ccc(C)nc2Nc2c(C)cc(C)cc2C)cc1` [Example 13, [3-(4-Allyloxybenzenesulfonyl)-6-methylpyridin-2-yl]-(2,4,6-trimethylphenyl)-amine]: the Ki lay within 100 to 500 nM. In the case of `Cc1cc(C)c(Nc2nc(C)ccc2S(=O)(=O)c2ccc(C)c(C)c2)c(C)c1` [Example 38, [3-(3,4-Dimethylbenzenesulfonyl)-6-methylpyridin-2-yl]-(2,4,6-trimethylphenyl)-amine] it was 100 to 500 nM; in that of `COc1ccc(S(=O)(=O)c2ccc(C)nc2Nc2c(C)cc(C)cc2C)cc1OC` [Example 39, [3-(3,4-Dimethoxybenzenesulfonyl)-6-methylpyridin-2-yl]-(2,4,6-trimethylphenyl)-amine], 500 to 5000 nM. Regarding `Cc1cc(C)c(Nc2nc(C)ccc2S(=O)(=O)c2ccc(Cl)c(Cl)c2)c(C)c1` [Example 40, [3-(3,4-Dichlorobenzenesulfonyl)-6-methylpyridin-2-yl]-(2,4,6-trimethylphenyl)-amine], the Ki is 100 to 500 nM. Turning to `Cc1ccc(S(=O)(=O)c2ccc(C)nc2Nc2c(C)cc(C)cc2C)cc1` [Example 41, [6-Methyl-3-(toluene-4-sulfonyl)-pyridin-2-yl]-(2,4,6-trimethylphenyl)-amine], the Ki is 100 to 500 nM. The result for `CCc1ccc(S(=O)(=O)c2ccc(C)nc2Nc2c(C)cc(C)cc2C)cc1` [Example 42, [3-(4-Ethylbenzenesulfonyl)-6-methylpyridin-2-yl]-(2,4,6-trimethylphenyl)-amine] reads no more than 100 nM.

As to `Cc1cc(C)c(Nc2nc(C)ccc2S(=O)(=O)c2ccc(C(C)C)cc2)c(C)c1` [Example 43, [3-(4-Isopropylbenzenesulfonyl)-6-methylpyridin-2-yl]-(2,4,6-trimethylphenyl)-amine], the inhibition constant (Ki) lay within 100 to 500 nM. In the case of `Cc1cc(C)c(Nc2nc(C)ccc2S(=O)(=O)c2ccc(OC(F)(F)F)cc2)c(C)c1` [Example 44, [6-Methyl-3-(4-trifluoromethoxybenzenesulfonyl)-pyridin-2-yl]-(2,4,6-trimethylphenyl)-amine] it was 100 to 500 nM. `Cc1cc(C)c(Nc2nc(C)ccc2S(=O)(=O)c2ccc(F)cc2)c(C)c1` [Example 45, [3-(4-Fluorobenzenesulfonyl)-6-methylpyridin-2-yl]-(2,4,6-trimethylphenyl)-amine]: the Ki fell in the range of 100 to 500 nM. For `C#Cc1ccc(S(=O)(=O)c2ccc(C)nc2Nc2c(C)cc(C)cc2C)cc1` [Example 47, [3-(4-Ethynylbenzenesulfonyl)-6-methylpyridin-2-yl]-(2,4,6-trimethylphenyl)-amine], the Ki was no more than 100 nM. For `Cc1cc(C)c(Nc2nc(C)ccc2S(=O)(=O)c2ccc(-c3ccccc3)cc2)c(C)c1` [Example 48, [3-(Biphenyl-4-sulfonyl)-6-methylpyridin-2-yl]-(2,4,6-trimethylphenyl)-amine], the Ki was no more than 100 nM. In the case of `COc1ccccc1-c1ccc(S(=O)(=O)c2ccc(C)nc2Nc2c(C)cc(C)cc2C)cc1` [Example 49, [3-(2′-Methoxybiphenyl-4-sulfonyl)-6-methylpyridin-2-yl]-(2,4,6-trimethylphenyl)-amine], the Ki was no more than 100 nM. As for `Cc1cc(C)c(Nc2nc(C)ccc2S(=O)(=O)c2ccc(CO)cc2)c(C)c1` [Example 50, {4-[6-Methyl-2-(2,4,6-trimethylphenylamino)-pyridine-3-sulfonyl]-phenyl}-methanol], the Ki was in the range of 100 to 500 nM. For `Cc1cc(C)c(NCc2ccc(S(=O)(=O)c3ccc(C)nc3Nc3c(C)cc(C)cc3C)cc2)c(C)c1` [Example 51, (6-Methyl-3-{4-[(2,4,6-trimethylphenylamino)-methyl]-benzenesulfonyl}-pyridin-2-yl)-(2,4,6-trimethylphenyl)-amine], the Ki fell in the range of 500 to 5000 nM. With `Cc1cc(C)c(Nc2nc(C)ccc2S(=O)(=O)c2ccc(C=O)cc2)c(C)c1` [Example 52, 4-[6-Methyl-2-(2,4,6-trimethylphenylamino)-pyridine-3-sulfonyl]-benzaldehyde], the inhibition constant Ki lay in the range of 500 to 5000 nM. On to `Cc1cc(C)c(Nc2nc(C)ccc2S(=O)(=O)c2ccc(C(O)c3ccccc3)cc2)c(C)c1` (stereo not shown) [Example 53, {4-[6-Methyl-2-(2,4,6-trimethylphenylamino)-pyridine-3-sulfonyl]-phenyl}-phenyl-methanol], for which the Ki lay within 100 to 500 nM. In the case of `C=CCOc1cccc(S(=O)(=O)c2ccc(C)nc2Nc2c(C)cc(C)cc2C)c1` [Example 59, [3-(3-Allyloxybenzenesulfonyl)-6-methylpyridin-2-yl]-(2,4,6-trimethylphenyl)-amine], the inhibitory constant (Ki) is 100 to 500 nM. As to `Cc1cc(C)c(Nc2nc(C)ccc2S(=O)(=O)c2cccc(OCc3ccccc3)c2)c(C)c1` [Example 60, [3-(3-Benzyloxybenzenesulfonyl)-6-methylpyridin-2-yl]-(2,4,6-trimethylphenyl)-amine], the Ki lay within 100 to 500 nM. Take `Cc1cc(C)c(Nc2nc(C)ccc2S(=O)(=O)c2cccc(OCc3ccc(F)cc3)c2)c(C)c1` [Example 61, {3-[3-(4-Fluorobenzyloxy)-benzenesulfonyl]-6-methylpyridin-2-yl}-(2,4,6-trimethylphenyl)-amine]: the Ki was 100 to 500 nM. As to `COc1cccc(COc2cccc(S(=O)(=O)c3ccc(C)nc3Nc3c(C)cc(C)cc3C)c2)c1` [Example 62, {3-[3-(3-Methoxybenzyloxy)-benzenesulfonyl]-6-methylpyridin-2-yl}-(2,4,6-trimethylphenyl)-amine], the Ki fell in the range of 100 to 500 nM. With `Cc1cc(C)c(Nc2nc(C)ccc2S(=O)(=O)c2cccc(OCc3ccc(Cl)nc3)c2)c(C)c1` [Example 64, {3-[3-(6-Chloropyridin-3-ylmethoxy)-benzenesulfonyl]-6-methylpyridin-2-yl}-(2,4,6-trimethylphenyl)-amine], the Ki lay within 100 to 500 nM.

Take `Cc1cc(C)c(Nc2nc(C)ccc2S(=O)(=O)c2cccc(OCc3cc(Cl)nc(Cl)c3)c2)c(C)c1` [Example 65, {3-[3-(2,6-Dichloropyridin-4-ylmethoxy)-benzenesulfonyl]-6-methylpyridin-2-yl}-(2,4,6-trimethylphenyl)-amine]: the Ki lay in the range of 100 to 500 nM. Regarding `CCc1ccc(S(=O)(=O)c2ccc(C)nc2Nc2ccc(C)cc2C)cc1` [Example 66, (2,4-Dimethylphenyl)-[3-(4-ethylbenzenesulfonyl)-6-methylpyridin-2-yl]-amine], the Ki was in the range of 100 to 500 nM. The result for `CCc1ccc(S(=O)(=O)c2ccc(C)nc2Nc2ccc(OC)cc2C)cc1` [Example 67, [3-(4-Ethylbenzenesulfonyl)-6-methylpyridin-2-yl]-(4-methoxy-2-methylphenyl)-amine] reads no more than 100 nM; that for `CCc1ccc(S(=O)(=O)c2ccc(C)nc2Nc2ccc(OC)cc2OC)cc1` [Example 68, (2,4-Dimethoxyphenyl)-[3-(4-ethylbenzenesulfonyl)-6-methylpyridin-2-yl]-amine], 100 to 500 nM.

For the origin of these results see patent US7030145B2, “Pyridinyl derivatives for the treatment of depression” (Bristol-Myers Squibb Company, priority 2003, dated 2006).
